Key:
Assay in all cases: whole plant or invertebrate
Format in all cases: in vivo
[1] = tested on: vetch aphid (Megoura viciae); settings: foliar, 120 h, sprayed broad bean leaf disks, adult aphids, 5 days, read-out: mortality in comparison with untreated controls
Method: For evaluating control of vetch aphid (Megoura viciae) through contact or systemic means the test unit consisted of 24-well-microtiter plates containing broad bean leaf disks.
The compounds were formulated using a solution containing 75% v/v water and 25% v/v DMSO. Different concentrations of formulated compounds were sprayed onto the leaf disks at 2.5 μl, using a custom built micro atomizer, at two replications.
After application, the leaf disks were air-dried and 5 to 8 adult aphids were placed on the leaf disks inside the microtiter plate wells. The aphids were then allowed to suck on the treated leaf disks and were incubated at about 23±1° C. and about 50±5% relative humidity for 5 days. Aphid mortality and fecundity were then visually assessed.

[2] = tested on: green peach aphid (Myzus persicae); settings: 72 h, in aphid diet under artificial membrane, adult aphids, 3 days, read-out: mortality in comparison with untreated controls
Text: For evaluating control of green peach aphid (Myzus persicae) through systemic means the test unit consisted of 96-well-microtiter plates containing liquid artificial diet under an artificial membrane.
The compounds were formulated using a solution containing 75% v/v water and 25% v/v DMSO. Different concentrations of formulated compounds were pipetted into the aphid diet, using a custom built pipetter, at two replications.
After application, 5 to 8 adult aphids were placed on the artificial membrane inside the microtiter plate wells. The aphids were then allowed to suck on the treated aphid diet and were incubated at about 23±1° C. and about 50±5% relative humidity for 3 days. Aphid mortality and fecundity was then visually assessed.

[3] = tested on: Cotton Aphid (Aphis gossypii); settings: 120 h, infested cotton plants sprayed, after 5 days, read-out: mortality in comparison with untreated controls
Method: The active compounds were formulated in cyclohexanone as a 10′ 000 ppm solution supplied in 1.3 ml ABgene® tubes. These tubes were inserted into an automated electrostatic sprayer equipped with an atomizing nozzle and they served as stock solutions for which lower dilutions were made in 1:1 (vol:vol) water:aceton. A nonionic surfactant (Kinetic®) was included in the solution at a volume of 0.01% (v/v).
Cotton plants at the cotyledon stage were infested with aphids prior to treatment by placing a heavily infested leaf from the main aphid colony on top of each cotyledon. Aphids were allowed to transfer overnight to accomplish an infestation of 80-100 aphids per plant and the host leaf was removed. The infested plants were then sprayed by an automated electrostatic plant sprayer equipped with an atomizing spray nozzle. The plants were dried in the sprayer fume hood, removed from the sprayer, and then maintained in a growth room under fluorescent lighting in a 24-hr photoperiod at 25° C. and 20-40% relative humidity. Aphid mortality on the treated plants, relative to mortality on untreated control plants, was determined after 5 days.

[4] = tested on: Cowpea Aphid (Aphis craccivora); settings: colonized cowpea plants sprayed, population reduction assessed after 24, 72 and 120 hours, read-out: mortality in comparison with untreated controls
Method: The active compound was dissolved at the desired concentration in a mixture of 1:1 (vol:vol) distilled water:acetone. The test solution was prepared at the day of use. Potted cowpea plants colonized with approximately 100 to 150 aphids of various stages were sprayed after the pest population had been recorded. Population reduction was assessed after 24, 72, and 120 hours.

[5] = tested on: Silverleaf Whitefly (Bemisia Argentifolii); settings: 72 h, sprayed cotton plants, whitefly adults, 3 days after treatment, read-out: mortality in comparison with untreated controls
Method: The active compounds were formulated in cyclohexanone as a 10,000 ppm solution supplied in 1.3 ml ABgene® tubes. These tubes were inserted into an automated electrostatic sprayer equipped with an atomizing nozzle and they served as stock solutions for which lower dilutions were made in 1:1 (vol:vol) water:aceton. A nonionic surfactant (Kinetic®) was included in the solution at a volume of 0.01% (v/v).
Cotton plants at the cotyledon stage (one plant per pot) were sprayed by an automated electrostatic plant sprayer equipped with an atomizing spray nozzle. The plants were dried in the sprayer fume hood and then removed from the sprayer. Each pot was placed into a plastic cup and 10 to 12 whitefly adults (approximately 3 to 5 days old) were introduced. The insects were collected using an aspirator and 0.6 cm, nontoxic Tygon® tubing (R-3603) connected to a barrier pipette tip. The tip, containing the collected insects, was then gently inserted into the soil containing the treated plant, allowing insects to crawl out of the tip to reach the foliage for feeding. Cups were covered with a reusable screened lid (150-micron mesh polyester screen PeCap from Tetko, Inc.). […] Mortality was assessed 3 days after treatment, compared to untreated control plants.

CON=Cc1cccc(-c2cnc(-c3cccnc3)s2)n1 [Compound 1-1, 6-(2-Pyridin-3-yl-thiazol-5-yl)-pyridine-2-carbaldehyde-O-methyloxime]
≥ 75%: mortality at 800 ppm [1] | mortality at 800 ppm [2] | mortality at 300 ppm [3] | mortality at 300 ppm [4] | mortality at 300 ppm [5]

C(=NOc1ccccc1)c1cccc(-c2cnc(-c3cccnc3)s2)n1 [Compound 1-10, 6-(2-Pyridin-3-yl-thiazol-5-yl)-pyridine-2-carbaldehyde-O-phenyloxime]
≥ 75%: mortality at 800 ppm [1] | mortality at 300 ppm [4]

Source: patent publication US20150368236A1, “2-(PYRIDIN-3-YL)-5-HETARYL-THIAZOLE COMPOUNDS CARRYING AN IMINE OR IMINE-DERIVED SUBSTITUENT FOR COMBATING INVERTEBRATE PESTS” (BASF SE, priority 2012, published 2015)
